From patent US5397705A, “Multiply mutated subtilisins” (Amgen Inc., priority 1992, dated 1995) come the findings set out here.

Substitutions are numbered along the chain they refer to. Where a SMILES comes first, the peptide text is derived from it.

Holding throughout (test): Kinetics of hydrolysis of succinyl Ala-Ala-Pro-Phe-para-nitroanilide by the subtilisin analog
The target of series [1] is T1, Bacillus subtilis aprA subtilisin analog [Asp^76, Ser^109, Ser^218, Ala^222] (Asn76Asp, Asn109Ser, Asn218Ser, Met222Ala) (Bacillus subtilis, UniProt P04189, M328A/N182D/N215S/N324S).
T1 construct: made in house; host or cells: Bacillus host cells (plasmid pAMB143)
T1 sequence (P04189 107-381 N182D/N215S/N324S/M328A): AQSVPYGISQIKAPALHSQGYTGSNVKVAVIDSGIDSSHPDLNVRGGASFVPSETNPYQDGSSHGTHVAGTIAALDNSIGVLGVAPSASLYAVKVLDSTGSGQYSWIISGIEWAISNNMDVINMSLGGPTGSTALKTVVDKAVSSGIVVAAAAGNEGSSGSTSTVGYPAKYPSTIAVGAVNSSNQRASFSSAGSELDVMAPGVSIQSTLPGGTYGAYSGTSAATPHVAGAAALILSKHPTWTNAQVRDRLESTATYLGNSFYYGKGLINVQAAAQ
The class given is biochemical. The settings on record: substrate succinyl Ala-Ala-Pro-Phe-para-nitroanilide. An excerpt: (§1) As mentioned earlier, analog [Asp^76, Ser^109, Ser^218, Ala^222 ] has a lower specific activity toward azocasein than analog [Asp^76, Ser^109, Ser^218 ], with an approximate Vm of 0.02 dA/(min-mg/ml) versus 0.08 dA/(min-mg/ml) for [Asp^76, Ser^109, Ser^218 ]. To see if this decreased activity was specific for azocasein, or a general characteristic of the [Asp^76, Ser^109, Ser^218, Ala^222 ] analog, the kinetics of the hydrolysis of the artificial peptide succinyl Ala-Ala-Pro-Phe-para-nitroanilide was analyzed for [Asp^76, Ser^109, Ser^218, Ala^222 ] and [Asp^76, Set^109, Ser^218 ]. […] This specific activity is 4-fold less than that of aprA-subtilisin. The catalytic Ser is at position 221, and it appears that substitutions at position 222 interfere with substrate binding as well as with the rate limiting step of proteolysis.

For series [2], the target named is T2, Bacillus subtilis aprA subtilisin analog [Asp^76, Ser^109, Ser^218] (Asn76Asp, Asn109Ser, Asn218Ser) (Bacillus subtilis, UniProt P04189, N182D/N215S/N324S).
T2 construct: made in house; host or cells: Bacillus subtilis (plasmid pAMB131)
T2 sequence (P04189 107-381 N182D/N215S/N324S): T1 sequence (P04189 107-381 N182D/N215S/N324S/M328A) with A222M
The class given is biochemical. To be noted: substrate succinyl Ala-Ala-Pro-Phe-para-nitroanilide.
Source text: as §1

Substrate in series [3]: C[C@H](NC(=O)CCC(=O)O)C(=O)N[C@@H](C)C(=O)N1CCC[C@H]1C(=O)N[C@@H](Cc1ccccc1)C(=O)Nc1ccc([N+](=O)[O-])cc1
The class given is biochemical, Bacillus subtilis. The settings on record: other: substrate succinyl Ala-Ala-Pro-Phe-para-nitroanilide.
Source text: as §1

For `C[C@H](NC(=O)CCC(=O)O)C(=O)N[C@@H](C)C(=O)N1CCC[C@H]1C(=O)N[C@@H](Cc1ccccc1)C(=O)Nc1ccc([N+](=O)[O-])cc1` [succinyl-L-alanyl-L-alanyl-L-prolyl-L-phenylalanyl-p-nitroanilide] (HELM PEPTIDE1{[O=C(O)CCC(=O)[*:2]].A.A.P.F.[O=[N+]([O-])c1ccc(N[*:1])cc1]}$$$$V2.0), the Vmax is 1.1 dA/(min-nmole) in series [1] and 7.9 dA/(min-nmole) in series [2].

B1: Bacillus subtilis aprA subtilisin analog [Asp^76, Ser^109, Ser^218] (Asn76Asp, Asn109Ser, Asn218Ser) (Bacillus subtilis subsp. subtilis str. 168; … (protein)
chain: T1 sequence (P04189 107-381 N182D/N215S/N324S/M328A) with A222M
notes: made in house; host or cells: Bacillus subtilis (plasmid pAMB131)
In the case of B1, the Km in series [3] (analog [Asp^76, Ser^109, Ser^218]) was 440 µM.

B2: Bacillus subtilis aprA subtilisin analog [Asp^76, Ser^109, Ser^218, Ala^222] (Asn76Asp, Asn109Ser, Asn218Ser, Met222Ala) (Bacillus subtilis subsp. subtilis … (protein)
chain: T1 sequence (P04189 107-381 N182D/N215S/N324S/M328A)
notes: made in house; host or cells: Bacillus host cells (plasmid pAMB143)
B2: the Michaelis constant (Km) in series [3] (analog [Asp^76, Ser^109, Ser^218, Ala^222]) turned out to be 1400 µM.
